Drawing on BindingDB's records for patent US12570607 (CSPC Zhongqi Pharmaceutical Technology (Shijiazhuang) Co., 2026), this text covers IC50 for nine compounds.

Cyclin-dependent kinase 9, sequence (P50750 whole entry): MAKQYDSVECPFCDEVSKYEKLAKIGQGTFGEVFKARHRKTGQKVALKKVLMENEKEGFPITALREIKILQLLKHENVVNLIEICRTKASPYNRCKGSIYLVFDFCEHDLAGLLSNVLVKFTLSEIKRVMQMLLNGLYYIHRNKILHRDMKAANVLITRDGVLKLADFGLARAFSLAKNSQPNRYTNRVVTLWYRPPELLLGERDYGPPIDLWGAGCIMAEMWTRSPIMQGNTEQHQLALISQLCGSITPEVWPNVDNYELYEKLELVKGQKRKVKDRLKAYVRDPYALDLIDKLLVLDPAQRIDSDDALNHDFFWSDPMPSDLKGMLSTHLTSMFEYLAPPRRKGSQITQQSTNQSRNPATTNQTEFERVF
Cyclin-dependent kinase 4, sequence (P11802 whole entry): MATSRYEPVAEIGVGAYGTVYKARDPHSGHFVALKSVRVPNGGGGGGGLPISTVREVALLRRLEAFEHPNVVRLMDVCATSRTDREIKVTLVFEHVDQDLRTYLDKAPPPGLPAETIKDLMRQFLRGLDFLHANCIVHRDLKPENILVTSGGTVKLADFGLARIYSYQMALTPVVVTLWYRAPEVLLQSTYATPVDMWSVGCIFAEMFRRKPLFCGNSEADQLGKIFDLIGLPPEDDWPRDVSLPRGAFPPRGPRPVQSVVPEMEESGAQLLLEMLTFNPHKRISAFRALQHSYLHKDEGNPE
Cyclin-dependent kinase 5, sequence (Q00535 whole entry): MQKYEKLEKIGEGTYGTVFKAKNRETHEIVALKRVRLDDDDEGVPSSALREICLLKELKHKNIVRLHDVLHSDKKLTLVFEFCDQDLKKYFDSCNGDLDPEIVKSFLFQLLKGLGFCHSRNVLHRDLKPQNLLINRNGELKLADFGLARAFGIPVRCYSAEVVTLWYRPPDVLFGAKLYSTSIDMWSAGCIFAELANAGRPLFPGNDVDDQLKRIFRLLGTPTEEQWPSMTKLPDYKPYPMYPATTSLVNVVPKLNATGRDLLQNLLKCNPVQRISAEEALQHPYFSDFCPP
Cyclin-dependent kinase 7, sequence (P50613 whole entry): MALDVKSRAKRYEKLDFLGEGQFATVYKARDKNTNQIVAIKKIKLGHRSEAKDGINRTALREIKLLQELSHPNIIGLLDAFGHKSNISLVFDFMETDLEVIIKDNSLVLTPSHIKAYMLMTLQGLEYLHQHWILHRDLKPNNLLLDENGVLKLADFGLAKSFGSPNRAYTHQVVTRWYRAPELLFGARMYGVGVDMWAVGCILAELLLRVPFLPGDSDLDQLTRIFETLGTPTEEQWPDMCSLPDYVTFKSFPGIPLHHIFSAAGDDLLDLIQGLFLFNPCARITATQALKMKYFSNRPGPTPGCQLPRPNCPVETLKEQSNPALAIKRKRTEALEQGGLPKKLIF
Cyclin-dependent kinase 1, sequence (P06493 whole entry): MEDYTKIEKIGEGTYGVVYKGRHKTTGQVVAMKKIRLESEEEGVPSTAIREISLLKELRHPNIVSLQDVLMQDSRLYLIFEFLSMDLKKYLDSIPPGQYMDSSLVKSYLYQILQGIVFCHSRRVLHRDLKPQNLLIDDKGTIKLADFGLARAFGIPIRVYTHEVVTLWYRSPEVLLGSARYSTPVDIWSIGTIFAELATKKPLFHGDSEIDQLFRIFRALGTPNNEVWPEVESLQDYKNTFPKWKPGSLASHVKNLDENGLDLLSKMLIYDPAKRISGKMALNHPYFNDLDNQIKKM
Cyclin-dependent kinase 6, sequence (Q00534 whole entry): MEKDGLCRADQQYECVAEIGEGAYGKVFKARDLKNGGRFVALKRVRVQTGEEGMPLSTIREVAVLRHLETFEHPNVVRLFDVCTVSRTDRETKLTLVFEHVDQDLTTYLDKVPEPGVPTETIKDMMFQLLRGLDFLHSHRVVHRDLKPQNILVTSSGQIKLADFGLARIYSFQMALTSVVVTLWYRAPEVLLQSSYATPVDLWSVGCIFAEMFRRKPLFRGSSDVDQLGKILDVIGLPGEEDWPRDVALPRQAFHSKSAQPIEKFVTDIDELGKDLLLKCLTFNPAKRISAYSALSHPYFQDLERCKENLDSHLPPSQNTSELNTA

The target in the first assay is Cyclin-dependent kinase 2 (Homo sapiens, UniProt P24941). The assay can be described thus: Inhibitory Effect Assay. On the procedure:
(§1) A compound dissolved in DMSO (50 nL) was transferred to the kinase reaction plate by using acoustic technology (Echo). 5 μL of a CDK kinase dilution solution was added to the kinase reaction plate and incubated at room temperature for 10 minutes after centrifugation. 5 μL of a substrate premix solution was added to the plate, and the final concentrations of the substrate and the ATP in each well were shown in Table 1. After centrifugation, the reaction was performed at 30° C. for 120 minutes.
For the compound `COC(=O)N[C@@H]1CCC[C@H](C(=O)Nc2cc(-c3ccc(F)cc3OC)c(F)cn2)C1` [US12570607, Example 36], inhibition was half-maximal at 558 nM (IC50).
In the case of `CNC(=O)N[C@@H]1CCC[C@H](C(=O)Nc2cc(-c3ccc(F)cc3OC)c(F)cn2)C1` [US12570607, Example 37], the IC50 was 688 nM.
The same measure, in the same setting: the value for `COc1cc(F)ccc1-c1cc(NC(=O)[C@H]2CCC[C@@H](NC(=O)Nc3cc(C)no3)C2)ncc1F` [US12570607, Example 41] was 1250 nM; that for `COc1cc(F)ccc1-c1cc(NC(=O)[C@H]2CCC[C@@H](NC(=O)C(F)(F)F)C2)ncc1F` [US12570607, Example 42] was 253 nM.
For the compound `COc1cc(F)ccc1-c1cc(NC(=O)[C@H]2CCC[C@@H](NC(=O)c3ccccn3)C2)ncc1F` [US12570607, Example 43], the IC50 was 823 nM.
The same measure, in the same setting: the value for `COc1cc(F)ccc1-c1cc(NC(=O)[C@H]2CCC[C@@H](NC(=O)CO)C2)ncc1F` [US12570607, Example 45] was 564 nM.
`COc1cc(F)c(F)cc1-c1cc(NC(=O)[C@H]2CCC[C@@H](NC(=O)C3(C#N)CC3)C2)ncc1F` [US12570607, Example 67] registered an IC50 of 392 nM.
On the same count and under the same terms, the value for `COc1cc(F)c(F)cc1-c1cc(NC(=O)[C@H]2CCC[C@@H](NC(=O)CO)C2)ncc1F` [US12570607, Example 68] was 274 nM.

A further assay addresses Cyclin-dependent kinase 5 (Homo sapiens, UniProt Q00535). The assay can be described thus: Inhibitory Effect Assay. The procedure:
as §1
`COC(=O)N[C@@H]1CCC[C@H](C(=O)Nc2cc(-c3ccc(F)cc3OC)c(F)cn2)C1` [US12570607, Example 36] gave a 50% inhibitory concentration (IC50) of 209 nM.
The same measure, in the same setting: the value for `CNC(=O)N[C@@H]1CCC[C@H](C(=O)Nc2cc(-c3ccc(F)cc3OC)c(F)cn2)C1` [US12570607, Example 37] was 248 nM.
The compound `COc1cc(F)ccc1-c1cc(NC(=O)[C@H]2CCC[C@@H](NC(=O)Nc3cc(C)no3)C2)ncc1F` [US12570607, Example 41] had an IC50 of 361 nM.
The same measure, in the same setting: the value for `COc1cc(F)ccc1-c1cc(NC(=O)[C@H]2CCC[C@@H](NC(=O)C(F)(F)F)C2)ncc1F` [US12570607, Example 42] was 140 nM.
Same read-out and setting: the value for `COc1cc(F)ccc1-c1cc(NC(=O)[C@H]2CCC[C@@H](NC(=O)c3ccccn3)C2)ncc1F` [US12570607, Example 43] was 296 nM.
Still for that read-out and setting: the value for `COc1cc(F)ccc1-c1cc(NC(=O)[C@H]2CCC[C@@H](NC(=O)CO)C2)ncc1F` [US12570607, Example 45] was 284 nM; that for `COc1cc(F)ccc1-c1cc(NC(=O)[C@H]2CCC[C@@H](NC(=O)[C@H](C)O)C2)ncc1F` [US12570607, Example 48] was 301 nM; that for `COc1cc(F)c(F)cc1-c1cc(NC(=O)[C@H]2CCC[C@@H](NC(=O)C3(C#N)CC3)C2)ncc1F` [US12570607, Example 67] was 82.9 nM.
As to `COc1cc(F)c(F)cc1-c1cc(NC(=O)[C@H]2CCC[C@@H](NC(=O)CO)C2)ncc1F` [US12570607, Example 68], half-maximal inhibition (IC50) was put at 162 nM.

The target of another assay is Cyclin-dependent kinase 7 (Homo sapiens, UniProt P50613). The assay can be described thus: Inhibitory Effect Assay. The procedure:
as §1
`COC(=O)N[C@@H]1CCC[C@H](C(=O)Nc2cc(-c3ccc(F)cc3OC)c(F)cn2)C1` [US12570607, Example 36]: it took 3720 nM to reach half-maximal inhibition (IC50).
On the same count and under the same terms, the value for `COc1cc(F)ccc1-c1cc(NC(=O)[C@H]2CCC[C@@H](NC(=O)Nc3cc(C)no3)C2)ncc1F` [US12570607, Example 41] was 1080 nM; that for `COc1cc(F)ccc1-c1cc(NC(=O)[C@H]2CCC[C@@H](NC(=O)c3ccccn3)C2)ncc1F` [US12570607, Example 43] was 2410 nM.
On to `COc1cc(F)ccc1-c1cc(NC(=O)[C@H]2CCC[C@@H](NC(=O)CO)C2)ncc1F` [US12570607, Example 45], for which the IC50 came out at 4440 nM. Against the preceding compound, the IC50 is about 1.8-fold higher.
Still for that read-out and setting: the value for `COc1cc(F)ccc1-c1cc(NC(=O)[C@H]2CCC[C@@H](NC(=O)[C@H](C)O)C2)ncc1F` [US12570607, Example 48] was 2150 nM; that for `COc1cc(F)c(F)cc1-c1cc(NC(=O)[C@H]2CCC[C@@H](NC(=O)C3(C#N)CC3)C2)ncc1F` [US12570607, Example 67] was 1420 nM; that for `COc1cc(F)c(F)cc1-c1cc(NC(=O)[C@H]2CCC[C@@H](NC(=O)CO)C2)ncc1F` [US12570607, Example 68] was 2630 nM.

The next assay deals with Cyclin-dependent kinase 9 (Homo sapiens, UniProt P50750). As to the kind of experiment: Inhibitory Effect Assay. On the procedure:
as §1
In turn, `COC(=O)N[C@@H]1CCC[C@H](C(=O)Nc2cc(-c3ccc(F)cc3OC)c(F)cn2)C1` [US12570607, Example 36] yielded an IC50 of 6.88 nM.
Regarding `CNC(=O)N[C@@H]1CCC[C@H](C(=O)Nc2cc(-c3ccc(F)cc3OC)c(F)cn2)C1` [US12570607, Example 37], the IC50 amounted to 6.44 nM.
Same read-out and setting: the value for `COc1cc(F)ccc1-c1cc(NC(=O)[C@H]2CCC[C@@H](NC(=O)Nc3cc(C)no3)C2)ncc1F` [US12570607, Example 41] was 7.65 nM; that for `COc1cc(F)ccc1-c1cc(NC(=O)[C@H]2CCC[C@@H](NC(=O)C(F)(F)F)C2)ncc1F` [US12570607, Example 42] was 6.66 nM.
Still for that read-out and setting: the value for `COc1cc(F)ccc1-c1cc(NC(=O)[C@H]2CCC[C@@H](NC(=O)c3ccccn3)C2)ncc1F` [US12570607, Example 43] was 7.17 nM; that for `COc1cc(F)ccc1-c1cc(NC(=O)[C@H]2CCC[C@@H](NC(=O)CO)C2)ncc1F` [US12570607, Example 45] was 6.92 nM; that for `COc1cc(F)ccc1-c1cc(NC(=O)[C@H]2CCC[C@@H](NC(=O)[C@H](C)O)C2)ncc1F` [US12570607, Example 48] was 6.84 nM.
On the same count and under the same terms, the value for `COc1cc(F)c(F)cc1-c1cc(NC(=O)[C@H]2CCC[C@@H](NC(=O)C3(C#N)CC3)C2)ncc1F` [US12570607, Example 67] was 5.45 nM.
On to `COc1cc(F)c(F)cc1-c1cc(NC(=O)[C@H]2CCC[C@@H](NC(=O)CO)C2)ncc1F` [US12570607, Example 68], for which half-maximal inhibition (IC50) required 5.55 nM.

Another assay has as its target Cyclin-dependent kinase 4 (Homo sapiens, UniProt P11802). The assay can be described thus: Inhibitory Effect Assay. On the procedure:
as §1
`COC(=O)N[C@@H]1CCC[C@H](C(=O)Nc2cc(-c3ccc(F)cc3OC)c(F)cn2)C1` [US12570607, Example 36]: 630 nM corresponded to half-maximal inhibition (IC50).
Consider `CNC(=O)N[C@@H]1CCC[C@H](C(=O)Nc2cc(-c3ccc(F)cc3OC)c(F)cn2)C1` [US12570607, Example 37], for which 361 nM corresponded to half-maximal inhibition (IC50). This IC50 is about 1.7-fold lower than that of the compound before.
On the same count and under the same terms, the value for `COc1cc(F)ccc1-c1cc(NC(=O)[C@H]2CCC[C@@H](NC(=O)Nc3cc(C)no3)C2)ncc1F` [US12570607, Example 41] was 629 nM; that for `COc1cc(F)ccc1-c1cc(NC(=O)[C@H]2CCC[C@@H](NC(=O)C(F)(F)F)C2)ncc1F` [US12570607, Example 42] was 184 nM.
Still for that read-out and setting: the value for `COc1cc(F)ccc1-c1cc(NC(=O)[C@H]2CCC[C@@H](NC(=O)c3ccccn3)C2)ncc1F` [US12570607, Example 43] was 582 nM; that for `COc1cc(F)ccc1-c1cc(NC(=O)[C@H]2CCC[C@@H](NC(=O)CO)C2)ncc1F` [US12570607, Example 45] was 785 nM.
`COc1cc(F)ccc1-c1cc(NC(=O)[C@H]2CCC[C@@H](NC(=O)[C@H](C)O)C2)ncc1F` [US12570607, Example 48]: the IC50 came out at 767 nM.
Same read-out and setting: the value for `COc1cc(F)c(F)cc1-c1cc(NC(=O)[C@H]2CCC[C@@H](NC(=O)C3(C#N)CC3)C2)ncc1F` [US12570607, Example 67] was 268 nM; that for `COc1cc(F)c(F)cc1-c1cc(NC(=O)[C@H]2CCC[C@@H](NC(=O)CO)C2)ncc1F` [US12570607, Example 68] was 402 nM.

For a further assay, the target named is Cyclin-dependent kinase 6 (Homo sapiens, UniProt Q00534). As to the kind of experiment: Inhibitory Effect Assay. The procedure:
as §1
With `COC(=O)N[C@@H]1CCC[C@H](C(=O)Nc2cc(-c3ccc(F)cc3OC)c(F)cn2)C1` [US12570607, Example 36], the IC50 amounted to 3370 nM.
The compound `CNC(=O)N[C@@H]1CCC[C@H](C(=O)Nc2cc(-c3ccc(F)cc3OC)c(F)cn2)C1` [US12570607, Example 37] came in with an IC50 of 2640 nM. This IC50 and that of the compound before are within 1.5-fold of each other.
The same measure, in the same setting: the value for `COc1cc(F)ccc1-c1cc(NC(=O)[C@H]2CCC[C@@H](NC(=O)Nc3cc(C)no3)C2)ncc1F` [US12570607, Example 41] was 4980 nM.
On the same count and under the same terms, the value for `COc1cc(F)ccc1-c1cc(NC(=O)[C@H]2CCC[C@@H](NC(=O)C(F)(F)F)C2)ncc1F` [US12570607, Example 42] was 1010 nM.
On the same count and under the same terms, the value for `COc1cc(F)ccc1-c1cc(NC(=O)[C@H]2CCC[C@@H](NC(=O)c3ccccn3)C2)ncc1F` [US12570607, Example 43] was 3080 nM; that for `COc1cc(F)ccc1-c1cc(NC(=O)[C@H]2CCC[C@@H](NC(=O)CO)C2)ncc1F` [US12570607, Example 45] was 2790 nM; that for `COc1cc(F)ccc1-c1cc(NC(=O)[C@H]2CCC[C@@H](NC(=O)[C@H](C)O)C2)ncc1F` [US12570607, Example 48] was 3630 nM.
As to `COc1cc(F)c(F)cc1-c1cc(NC(=O)[C@H]2CCC[C@@H](NC(=O)C3(C#N)CC3)C2)ncc1F` [US12570607, Example 67], it took 600 nM to reach half-maximal inhibition (IC50).
Consider `COc1cc(F)c(F)cc1-c1cc(NC(=O)[C@H]2CCC[C@@H](NC(=O)CO)C2)ncc1F` [US12570607, Example 68], for which it took 2030 nM to reach half-maximal inhibition (IC50).

For the next assay, the target named is Cyclin-dependent kinase 1 (Homo sapiens, UniProt P06493). The assay can be described thus: Inhibitory Effect Assay. The procedure:
as §1
With `COC(=O)N[C@@H]1CCC[C@H](C(=O)Nc2cc(-c3ccc(F)cc3OC)c(F)cn2)C1` [US12570607, Example 36], the IC50 came out at 97 nM.
Compound `CNC(=O)N[C@@H]1CCC[C@H](C(=O)Nc2cc(-c3ccc(F)cc3OC)c(F)cn2)C1` [US12570607, Example 37] came in with an IC50 of 82 nM.
The same measure, in the same setting: the value for `COc1cc(F)ccc1-c1cc(NC(=O)[C@H]2CCC[C@@H](NC(=O)Nc3cc(C)no3)C2)ncc1F` [US12570607, Example 41] was 196 nM.
Same read-out and setting: the value for `COc1cc(F)ccc1-c1cc(NC(=O)[C@H]2CCC[C@@H](NC(=O)C(F)(F)F)C2)ncc1F` [US12570607, Example 42] was 72.6 nM; that for `COc1cc(F)ccc1-c1cc(NC(=O)[C@H]2CCC[C@@H](NC(=O)c3ccccn3)C2)ncc1F` [US12570607, Example 43] was 80 nM.
Still for that read-out and setting: the value for `COc1cc(F)ccc1-c1cc(NC(=O)[C@H]2CCC[C@@H](NC(=O)CO)C2)ncc1F` [US12570607, Example 45] was 93.2 nM; that for `COc1cc(F)ccc1-c1cc(NC(=O)[C@H]2CCC[C@@H](NC(=O)[C@H](C)O)C2)ncc1F` [US12570607, Example 48] was 133 nM.
`COc1cc(F)c(F)cc1-c1cc(NC(=O)[C@H]2CCC[C@@H](NC(=O)CO)C2)ncc1F` [US12570607, Example 68]: the 50% inhibitory concentration (IC50) amounted to 73.6 nM.

The term IC50 denotes the point on the concentration scale where inhibition reaches its midpoint. A high value points to a need for much substance.
